Where “and” joins values, the source holds several entries; their conditions need not be identical. Equal entries are not always repeated. Entries after “also recorded” stand apart in the source; their conditions may differ.

Assay [1] relates to MUC5AC mRNA in Flag-SPDEF-GFP HBEC cells. Description: Effect of inhibitors on MUC5AC expression in SPDEF-expressing HBEC cells on air-liquid interface (real-time PCR). The settings on record: for Inhibitor concentrations at which MUC5AC mRNA was not detected: SPDEF-expressing HBEC cells; for Concentration of dose curve with no detection of MUC5AC mRNA (starred): Flag-SPDEF-GFP HBEC on ALI, inhibitor added upon induction of ALI, RNA after 48 hours, TAQMAN real-time PCR, FIG. 19. It is filed as cell-based, human. Here is the method:
Inhibitors were added to media upon induction of ALI and RNA was isolated after 48 hours. (A) p38 MAPK inhibitor (SB239063) dose curve: 0.5, 1, 2.5, 5*, 10* μM. (B) PI3K inhibitor (LY294002) dose curve: 0.5, 1, 2.5, 5*, 10*, 25* μM. (C) mTor inhibitor (Rapamycin) dose curve: 1, 5, 10, 25, 50*, 100* nM. *=No detection of MUC5AC mRNA at these concentrations as determined by TAQMAN® real-time PCR (Applied Biosystems, Foster City, Calif.).
Expression levels of MUC5AC were measured in SPDEF-expressing HBEC cells treated with the p38 MAPK inhibitor SB239063. MUC5AC mRNA was quantitated by QRT-PCR. MUC5AC mRNA was not detected at inhibitor concentrations ≧5 uM.
Expression levels of MUC5AC in SPDEF-expressing HBEC cells treated with rapamycin. MUC5AC mRNA was not detected at inhibitor concentrations ≧50 nM.
Expression levels of MUC5AC in SPDEF-expressing HBEC cells treated with the PI3K inhibitor LY294002. MUC5AC mRNA was not detected at inhibitor concentrations ≧[…].
Using Agr2 as a readout of SPDEF, the effects of p38 MAPK inhibitor SB239063, PI3K inhibitor LY294002, and mTor inhibitor rapamycin in human bronchiolar epithelial cells (HBEC) were investigated. In vitro preparations were maintained at the ALI for 48 hours prior to taking Agr2 measurements.
To test for small molecule inhibitors, HBEC cells expressing lentiviral SPDEF constructs were treated with the p38 MAP kinase inhibitor, SB239063. MUC5AC mRNA was quantitated by QRT-PCR. SPDEF-dependent MUC5AC mRNA was inhibited by the p38 MAP kinase inhibitor (FIG. 22).
Background: Real-time PCR tracks product formation cycle by cycle.

Assay [2] concerns mouse Agr2 1.6 Kb promoter. The note with it: U0126 at 20 μM and 10 μM; 36 hour transfection, aSTEpC; DMSO vehicle control.
Procedure: Thirty-six hour transfection of adult sheep tracheal epithelial cells (aSTEpC) with Agr2-luciferase and expression vectors encoding SPDEF and Foxa3. MAPK inhibitor (U0126) was added at a concentration of 20 μM and 10 μM (DMSO as vehicle control).
Thirty-six hour transfection of adult sheep tracheal epithelial cells (aSTEpCs) with Agr2-luciferase and expression vectors encoding SPDEF and Foxa3 were performed. A MAPK inhibitor (U0126) was added at a concentration of 20 μM and 10 μM (using DMSO as a vehicle control). MAPK inhibitor (U0126) effects on the activity of the mouse Agr2 1.6 Kb promoter were analyzed.
Promoter reporter constructs were co-transfected into primary sheep tracheal epithelial cells (aSTEpC) with CMV-13-Gal plasmid (Clontech, Palo Alto, Calif.) and/or transcription factor expression plasmid using Lipofectamine 2000 (Invitrogen, Carlsbad, Calif.) as previously described^6. Growth media was changed into a differentiation media (MTEC/Nu, mouse tracheal epithelial cells culture media, 2% Nu serum)^39 after transfection. Cell lysates were collected for luciferase activity assay 24 hours after transfection. All transfection assays were performed with primary sheep adult tracheal epithelial cells at passage 3 or 4. Relative promoter activities were normalized to transfection efficiency assayed by β-galactosidase activity and shown as mean±S.D.
Assay [3] concerns SPDEF in primary mouse tracheal epithelial cells. The assay can be described thus: IL-13 induction of SPDEF in primary mouse tracheal epithelial cells at air-liquid interface (immunohistochemistry). The note with it: IL-13 10 ng/ml; ALI culture, 3 and 7 days; FIG. 14. The assay is classed as cell-based. Here is the method: Immunohistochemical staining of SPDEF in primary mouse tracheal epithelial cells cultured under an air-liquid interface (ALI) condition in the presence or absence of IL-13 (10 ng/ml). Expression of SPDEF was detected after 3 days (upper panel) and 7 days (lower panel) after ALI culture. Scale bar: 50 μm.
The air-liquid interface culture of mouse tracheal epithelial cells was performed as previously described^39. The mouse IL-13 used for in vitro culture was purchased from R&D System (Minneapolis, Minn.). The air-liquid interface culture of the HEBCs was similar to procedures previously described^40.

In the case of `O=c1cc(N2CCOCC2)oc2c(-c3ccccc3)cccc12` [LY294002], in assay [1] (QRT-PCR, FIGS. 22, 25), the “Inhibitor concentrations at which MUC5AC mRNA was not detected” value is ≥ 10 µM.

For `CO[C@H]1C[C@@H]2CC[C@@H](C)[C@@](O)(O2)C(=O)C(=O)N2CCCC[C@H]2C(=O)O[C@H]([C@H](C)C[C@@H]2CC[C@@H](O)[C@H](OC)C2)CC(=O)[C@H](C)/C=C(\C)[C@@H](O)[C@@H](OC)C(=O)[C@H](C)C[C@H](C)/C=C/C=C/C=C/1C` [Rapamycin], the “Concentration of dose curve with no detection of MUC5AC mRNA (starred)” value in assay [1] is 50 nM and 100 nM. Moreover, the “Inhibitor concentrations at which MUC5AC mRNA was not detected” value in assay [1] (FIG. 24) is ≥ 0.05 µM.

Take `COc1nccc(-c2c(-c3ccc(F)cc3)ncn2C2CCC(O)CC2)n1` (centres unmarked) [SB239063]: in assay [1], the “Concentration of dose curve with no detection of MUC5AC mRNA (starred)” value is 5000 nM and 10000 nM. The “Effect on SPDEF-mediated MUC5AC (Muc5A/C) activation / mRNA” value in assay [1] (HBEC in vitro, result in words) was “highly active; also recorded: inhibited”. Moreover, the “Inhibitor concentrations at which MUC5AC mRNA was not detected” value in assay [1] (QRT-PCR, FIGS. 22, 25) is ≥ 5 µM.

For the molecule `N#CC(=C(/N)Sc1ccccc1N)/C(C#N)=C(\N)Sc1ccccc1N` [U0126], the “Effect on activation of SPDEF or Agr2 (Agr2 promoter luciferase activity)” value in assay [2] was “inhibited”.

B1: IL-13: mouse IL-13 cytokine purchased from R&D System, used for in vitro culture (protein, UniProt P20109 19-131, looked up)
Interleukin-13: APGPVPRSVSLPLTLKELIEELSNITQDQTPLCNGSMVWSVDLAAGGFCVALDSLTNISNCNAIYRTQRILHGLCNRKAPTTVSSLPDTKIEVAHFITKLLSYTKQLFRHGPF
Regarding B1, the SPDEF expression entry in assay [3] was “dramatically induced”.
